Data from patent EP0080071A2, “2-Imidazolylmethyl-2-phenyl-1,3-dioxolanes, process for their preparation and their use as fungicides” (BAYER AG, priority 1981, dated 1983).

What was measured:
[1] = system: Drechslera graminea (syn. Helminthosporium gramineum); assay: Drechslera graminea test (barley) / seed treatment; format: in vivo; details: dry seed dressing of infected barley seed; evaluation for stripe disease symptoms ca. 3 weeks after sowing; compared with the prior-art comparison substances
From the text: Drechslera graminea-Test (Gerste) / Saatgutbehandlung (syn. Helminthosporium gramineum)
Die Anwendung der Wirkstoffe erfolgt als Trockenbeizmittel. Sie werden zubereitet durch Abstrecken des jeweiligen Wirkstoffes mit Gesteinsmehl zu einer feinpulvrigen Mischung, die eine gleichmäßige Verteilung auf der Saatgutoberfläche gewährleistet.
Zur Beizung schüttelt man das infizierte Saatgut 3 Minuten lang mit dem Beizmittel in einer verschlossenen Glasflasche.
Das Saatgut setzt man in gesiebter, feuchter Standarderde eingebettet, in verschlossenen Petrischalen im Kühlschrank 10 Tage lang einer Temperatur von 4°C aus. Dabei wird die Keimung der Gerste und gegebenenfalls auch der Pilzsporen eingeleitet. Anschließend sät man die vorgekeimte Gerste mit 2 x 50 Korn 3 cm tief in eine Standarderde und kultiviert sie im Gewächshaus bei einer Temperatur von ca. 18°C in Saatkästen, die täglich 15 Stunden dem Licht ausgesetzt werden.
Ca. 3 Wochen nach der Aussaat erfolgt die Auswertung der Pflanzen auf Symptome der Streifenkrankheit.

Podosphaera leucotricha = assay: Podosphaera test (apple) / protective; format: in vivo; details: protective spray on young apple plants; evaluation 9 days after inoculation; compared with the prior-art comparison substances
From the text: Podosphaera-Test (Apfel) / protektiv
• Lösungsmittel: 4,7 Gewichtsteile Aceton • Emulgator: 0,3 Gewichtsteile Alkylarylpolyglykolether
Zur Herstellung einer zweckmäßigen Wirkstoffzubereitung vermischt man 1 Gewichtsteil Wirkstoff mit den angegebenen Mengen Lösungsmittel und Emulgator und verdünnt das Konzentrat mit Wasser auf die gewünschte Konzentration.
Zur Prüfung auf protektive Wirksamkeit bespritzt man jungePflanzen mit der Wirkstoffzubereitung bis zur Tropfnässe. Nach Antrocknen des Spritzbelages werden die Pflanzen durch Bestäuben mit Konidien des Apfelmehltauerregers (Podosphaera leucotricha) inokuliert.
Die Pflanzen werden dann im Gewächshaus bei 23°C und einer relativen Luftfeuchtigkeit von ca. 70 % aufgestellt.
9 Tage nach der Inokulation erfolgt die Auswertung.

Q: How did the Wirksamkeit [1] turn out when `Cl.FC(F)(F)c1cc(Cl)ccc1C1(Cn2ccnc2)OCCO1` [Beispiel 1, 2-(4-Chlor-2-trifluormethyl)-phenyl-2-(imidazol-1-yl)-methyl-1,3-dioxolan-hydrochlorid] was run?
A: Its Wirksamkeit is “deutliche überlegenheit in der Wirksamkeit gegenüber dem Stand der Technik”.

Q: And the Wirksamkeit (Podosphaera leucotricha)?
A: The Wirksamkeit was “deutliche Überlegenheit in der Wirksamkeit gegenüber dem Stand der Technik”.
